The text below walks through data of US10752595B2, “Crystalline forms of a bromodomain and extraterminal protein inhibitor drug, processes for preparation thereof, and use thereof” (Crystal Pharmaceutical (Suzhou) Co., Ltd., priority 2016, dated 2020).

SMILES strings stand for the structures. Values after ≈ are worked out from the molar mass of the structure shown. “Also recorded” adds a separate entry of the source.

Holding throughout (format): physicochemical
Series [1] in a line: Solubility study: saturated solutions in SGF and FeSSIF, concentration by HPLC. Particulars: for Solubility FeSSIF: FeSSIF (fed state simulated intestinal fluids, pH=5.0). From the text: High Performance Liquid Chromatography (HPLC) data in the present disclosure were collected from an Agilent 1260 with Diode Array Detector (DAD). The HPLC method parameters for purity test in the present disclosure are as follows: • 1. Column: Waters XBridge C18 150×4.6 mm, 5 μm • 2. Mobile Phase: A: 0.1% TFA in H2O • B: 0.1% TFA in Acetonitrile
The prepared apabetalone Form CS2 was suspended into SGF (simulated gastric fluids) and FeSSIF (fed state simulated intestinal fluids, pH=5.0) to obtain saturated solutions. After being equilibrated for 1 h and 24 h, concentrations of the saturated solutions were measured by HPLC.
The prepared Form CS8 was suspended into SGF (simulated gastric fluids) and FeSSIF (fed state simulated intestinal fluids, pH=5.0) to obtain saturated solutions. After being equilibrated for 1 h, concentrations of the saturated solutions were measured by HPLC.
The prepared Form CS13 was suspended into SGF (simulated gastric fluids) and FeSSIF (fed state simulated intestinal fluids, pH=5.0) to obtain saturated solutions. After being equilibrated for 1 h, 4 h and 24 h, concentrations of the saturated solutions were measured by HPLC.
The prepared apabetalone Form CS20 was suspended into SGF (simulated gastric fluids) and FeSSIF (fed state simulated intestinal fluids, pH=5.0) to obtain saturated solutions. After being equilibrated for 1 h, 4 h and 24 h, concentrations of the saturated solutions were measured by HPLC.
The prepared solid of apabetalone Form CS1 was suspended into SGF (simulated gastric fluids) and FeSSIF (fed state simulated intestinal fluids, pH=5.0) to obtain saturated solutions. After being equilibrated for 1 h, 4 h and 24 h, concentrations of the saturated solutions were measured by HPLC.
The prepared solid of apabetalone Form CS7 was suspended into SGF (simulated gastric fluids) and FeSSIF (fed state simulated intestinal fluids, pH=5.0) to obtain saturated solutions. After being equilibrated for 1 h, 4 h and 24 h, concentrations of the saturated solutions were measured by HPLC.
The prepared solid of apabetalone Form CS9 was suspended into SGF (simulated gastric fluids) and FeSSIF (fed state simulated intestinal fluids, pH=5.0) to obtain saturated solutions. After being equilibrated for 1 h, 4 h and 24 h, concentrations of the saturated solutions were measured by HPLC.
The prepared solid of apabetalone Form CS11 was suspended into SGF (simulated gastric fluids) and FeSSIF (fed state simulated intestinal fluids, pH=5.0) to obtain saturated solutions. After being equilibrated for 1 h, 4 h and 24 h, concentrations of the saturated solutions were measured by HPLC.
The prepared solid of apabetalone Form CS4 was suspended into SGF (simulated gastric fluids) and FeSSIF (fed state simulated intestinal fluids, pH=5.0) to obtain saturated solutions. After being equilibrated for 1 h, 4 h and 24 h, concentrations of the saturated solutions were measured by HPLC.

Series [2] in a line: Stability study: open-dish storage in constant temperature and humidity chambers, XRPD and purity check. The note with it: for Form change and purity decrease after storage: open dish. The procedure:
Form CS8 was placed in a constant temperature and humidity chamber at 25° C./60% RH for 2 weeks in open dish. Crystalline form of the sample were tested by XRPD and impurity of the sample were checked. […] Crystalline form of the sample were tested by XRPD and impurity of the sample were checked. […] Two samples of apabetalone Form CS1 were placed in constant temperature and humidity chambers at 25° C./60% RH and 40° C./75% RH for 10 months in open dishes. The samples were characterized by XRPD and chemical impurity. […] Three samples of apabetalone Form CS7 were placed in constant temperature and humidity chambers at 25° C./60% RH and 40° C./75% RH for 4 weeks and 80° C. for 1 day in open dishes. Crystalline form of the sample were tested by XRPD and impurity of the sample were checked. […] Two samples of apabetalone Form CS9 were placed in constant temperature and humidity chambers at 25° C./60% RH and 40° C./75% RH for 10 months in open dishes. Crystalline form of the sample were tested by XRPD and impurity of the sample were tested to check the stability of Form CS9. […] Two samples of apabetalone Form CS11 were placed in constant temperature and humidity chambers at 25° C./60% RH and 40° C./75% RH for 6 weeks in open dishes. Crystalline form of the sample were tested by XRPD and impurity of the sample were tested to check the stability of Form CS11. […] Two samples of apabetalone Form CS4 were placed in open dishes in constant temperature and humidity chambers at 25° C./60% RH and 40° C./75% RH for 10 months. Crystalline form of the sample were tested by XRPD and impurity of the sample were tested to check the stability of Form CS4.

Series [3] is described as follows: Hygroscopicity by dynamic vapor sorption (DVS). The note with it: for Hygroscopicity class: Chinese Pharmacopoeia 2015 criteria, 80% RH; for Hygroscopicity class / Weight Gain under 80% Relative Humidity: 25° C.; for Weight Gain under 80% Relative Humidity: DVS, about 10 mg of sample; for Form change after DVS test (XRPD): XRPD before and after DVS test. On the procedure:
Dynamic Vapor Sorption (DVS) was measured via a SMS (Surface Measurement Systems Ltd.) intrinsic DVS instrument. Its control software is DVS—Intrinsic control software, and its analysis software is DVS—Intrinsic Analysis software. Typical Parameters for DVS test are as follows: • Temperature: 25° C. • Gas and flow rate: N2, 200 mL/min • dm/dt: 0.002%/min • RH range: 0% RH to 95% RH Dynamic vapor sorption (DVS) was applied to test hygroscopicity of Form CS8 in the present disclosure with about 10 mg of sample. […] Dynamic vapor sorption (DVS) was applied to test hygroscopicity of Form CS1 of the present disclosure with about 10 mg of sample. […] Dynamic vapor sorption (DVS) was applied to test hygroscopicity of Form CS7 of the present disclosure with about 10 mg of samples. Dynamic vapor sorption (DVS) was applied to test hygroscopicity of Form CS9 of the present disclosure with about 10 mg of sample. […] Dynamic vapor sorption (DVS) was applied to test hygroscopicity of Form CS4 of the present disclosure with about 10 mg of sample.

Setting [4] is: SGF (simulated gastric fluids), equilibrated 1 h.
[5] abbreviates: SGF (simulated gastric fluids), equilibrated 4 h.
[6] abbreviates: SGF (simulated gastric fluids), equilibrated 24 h.

What is called solubility is how much of the substance goes into solution per volume. The low end stands for little dissolved substance, the high end for much dissolved substance. As for `COc1cc(OC)c2c(=O)[nH]c(-c3cc(C)c(OCCO)c(C)c3)nc2c1` [Form CS2, 2-[4-(2-hydroxyethoxy)-3,5-dimethylphenyl]-5,7-dimethoxyquinazolin-4(3H)-one], the figures for the “Solubility FeSSIF” value in series [1] (equilibrated 1 h) and in series [1] (equilibrated 24 h) were 0.15 mg/mL (≈ 405 µM) and 0.24 mg/mL (≈ 648 µM), respectively. In series [1] (setting [4]), the “Solubility SGF” value is given as 0.49 mg/mL (≈ 1320 µM). In series [1] (SGF (simulated gastric fluids), simulated gastric fluid, thermodynamic from solid, equilibrated 24 h), this compound registered a solubility at 24 h of 610 µg/mL (≈ 1650 µM).
As to `COc1cc(OC)c2c(=O)[nH]c(-c3cc(C)c(OCCO)c(C)c3)nc2c1` [Form CS7, 2-[4-(2-hydroxyethoxy)-3,5-dimethylphenyl]-5,7-dimethoxyquinazolin-4(3H)-one], the figures for the “Solubility FeSSIF” value in series [1] (equilibrated 1 h), in series [1] (equilibrated 4 h) and in series [1] (equilibrated 24 h) were 0.19 mg/mL (≈ 513 µM), 0.17 mg/mL (≈ 459 µM) and 0.29 mg/mL (≈ 783 µM), respectively. The “Solubility SGF” value in series [1] (setting [4]) is 0.38 mg/mL (≈ 1030 µM); in series [1] (setting [5]), 0.42 mg/mL (≈ 1130 µM); in series [1] (setting [6]), 0.58 mg/mL (≈ 1570 µM). In addition, the “Time the form is stable when stored” value in series [2] (25° C./60% RH) and in series [2] (40° C./75% RH) was “at least 4 weeks” throughout. The “Form change and purity decrease after storage” value (“Form change and purity decrease” for short) is “No form change and obvious purity decrease” in series [2] (25° C./60% RH, 4 weeks); “No form change and obvious purity decrease” in series [2] (40° C./75% RH, 4 weeks); “No form change and obvious purity decrease” in series [2] (80° C., 1 day). Moreover, in series [3], the Hygroscopicity class entry was “slightly hygroscopic (Increase in mass is less than 2 percent and equal to or greater than 0.2 percent)”. Besides, the “Weight Gain under 80% Relative Humidity” value in series [3] is on record as 0.79%. Also, the “Form change after DVS test (XRPD)” value in series [3] was “No form change”.
As for `COc1cc(OC)c2c(=O)[nH]c(-c3cc(C)c(OCCO)c(C)c3)nc2c1` [Form CS8, 2-[4-(2-hydroxyethoxy)-3,5-dimethylphenyl]-5,7-dimethoxyquinazolin-4(3H)-one], the “Solubility FeSSIF” value in series [1] (equilibrated 1 h) is on record as 0.28 mg/mL (≈ 756 µM). Further, in series [1] (setting [4]), the “Solubility SGF” value is recorded as 0.43 mg/mL (≈ 1160 µM). In series [2] (25° C./60% RH), the “Time the form is stable when stored” value was “at least 2 weeks”. For the same compound, the “Form change and purity decrease” value in series [2] (25° C./60% RH, 2 weeks) was “No obvious form change and purity decrease”. Further, in series [3], the Hygroscopicity class result was “slightly hygroscopic (Increase in mass is less than 2 percent and equal to or greater than 0.2 percent)”; the “Weight Gain under 80% Relative Humidity” value stood at 0.34%; the “Form change after DVS test (XRPD)” value is “No form change”.
Take `COc1cc(OC)c2c(=O)[nH]c(-c3cc(C)c(OCCO)c(C)c3)nc2c1` [Form CS9, 2-[4-(2-hydroxyethoxy)-3,5-dimethylphenyl]-5,7-dimethoxyquinazolin-4(3H)-one]: the “Solubility FeSSIF” value in series [1] (equilibrated 1 h) is 0.17 mg/mL (≈ 459 µM); in series [1] (equilibrated 4 h), 0.13 mg/mL (≈ 351 µM); in series [1] (equilibrated 24 h), 0.20 mg/mL (≈ 540 µM). In addition, the “Solubility SGF” value in series [1] (setting [4]) is recorded as 0.30 mg/mL (≈ 810 µM); in series [1] (setting [5]), 0.31 mg/mL (≈ 837 µM); in series [1] (setting [6]), 0.37 mg/mL (≈ 999 µM). Besides, the “Time the form is stable when stored” value in series [2] (25° C./60% RH) and in series [2] (40° C./75% RH) was “at least 10 months” each time. Besides, the “Form change and purity decrease” value in series [2] (25° C./60% RH, 10 months) is “No form change and obvious purity decrease”; in series [2] (40° C./75% RH, 10 months) it was “No form change and obvious purity decrease”. The Hygroscopicity class result in series [3] was “almost non hygroscopic”. The “Weight Gain under 80% Relative Humidity” value in series [3] was 0.18%. Further, in series [3], the “Form change after DVS test (XRPD)” value was “doesn't change; also recorded: No form change”.
As for `COc1cc(OC)c2c(=O)[nH]c(-c3cc(C)c(OCCO)c(C)c3)nc2c1` [Form CS11, 2-[4-(2-hydroxyethoxy)-3,5-dimethylphenyl]-5,7-dimethoxyquinazolin-4(3H)-one], the results for the “Solubility SGF” value in series [1] (setting [4]), in series [1] (setting [5]) and in series [1] (setting [6]) were 0.71 mg/mL (≈ 1920 µM), 0.65 mg/mL (≈ 1750 µM) and 0.65 mg/mL (≈ 1750 µM), respectively. In addition, the “Time the form is stable when stored” value in series [2] (25° C./60% RH) and in series [2] (40° C./75% RH) was “at least 6 weeks” in each case. Moreover, the “Form change and purity decrease” value in series [2] (25° C./60% RH, 6 weeks) was “No form change and obvious purity decrease”; in series [2] (40° C./75% RH, 6 weeks), “No form change and obvious purity decrease”.
Turning to `COc1cc(OC)c2c(=O)[nH]c(-c3cc(C)c(OCCO)c(C)c3)nc2c1` [Form CS13, 2-[4-(2-hydroxyethoxy)-3,5-dimethylphenyl]-5,7-dimethoxyquinazolin-4(3H)-one], the “Solubility FeSSIF” value in series [1] (equilibrated 1 h) was 0.13 mg/mL (≈ 351 µM); in series [1] (equilibrated 4 h), 0.14 mg/mL (≈ 378 µM); in series [1] (equilibrated 24 h), 0.14 mg/mL (≈ 378 µM). In addition, the entries for the “Solubility SGF” value in series [1] (setting [4]), in series [1] (setting [5]) and in series [1] (setting [6]) were 0.35 mg/mL (≈ 945 µM), 0.31 mg/mL (≈ 837 µM) and 0.33 mg/mL (≈ 891 µM), respectively.
As for `COc1cc(OC)c2c(=O)[nH]c(-c3cc(C)c(OCCO)c(C)c3)nc2c1` [Form CS20, 2-[4-(2-hydroxyethoxy)-3,5-dimethylphenyl]-5,7-dimethoxyquinazolin-4(3H)-one], the entries for the “Solubility FeSSIF” value in series [1] (equilibrated 1 h), in series [1] (equilibrated 4 h) and in series [1] (equilibrated 24 h) were 0.19 mg/mL (≈ 513 µM), 0.16 mg/mL (≈ 432 µM) and 0.22 mg/mL (≈ 594 µM), respectively. The “Solubility SGF” value in series [1] (setting [4]) is reported as 0.44 mg/mL (≈ 1190 µM); in series [1] (setting [5]), 0.41 mg/mL (≈ 1110 µM); in series [1] (setting [6]) it was 0.51 mg/mL (≈ 1380 µM). The “Time the form is stable when stored” value in series [2] (25° C./60% RH) and in series [2] (40° C./75% RH) was “at least 2 weeks” in each case. Besides, the “Form change and purity decrease” value in series [2] (25° C./60% RH, 2 weeks) was “No form change and obvious purity decrease”; in series [2] (40° C./75% RH, 2 weeks) it was “No form change and obvious purity decrease”.
